Experimental findings from EP0435794A1, “Alkenyl- or heteroaryl thio, sulfone, sulfoxy herbicides” (RHONE-POULENC AGROCHIMIE, priority 1989, dated 1991) are described below.

The structures appear in SMILES notation.

Type in all cases: in vivo
For one data set, the system named is CYPERUS SEROTINUS
Description: Exemple D: herbicide application pre or post emergence on submerged plants (rice paddy model). The settings on record: 24 days; for % d'efficacité CYPERUS SEROTINUS (1 feuille): 1-leaf stage; for % d'efficacité CYPERUS SEROTINUS (prélevée): pre-emergence. An excerpt: (§1) Exemple D : Application herbicide en pré ou post levée d'espèces végétales submergées (modèle rizière)
(§2) Dans des pots de 9 x 9 x 9 cm remplis de terre agricole on sème un nombre de graines ou on plante un nombre de bulbes ou rhizomes déterminé en fonction de l'espèce végétale ou de la grosseur des organes. Pour le riz, 4 plants au stade 2-3 feuilles sont transplantés dans un pot rempli de terre végétale 4 jours avant le traitement.
(§3) Les pots sont ensuite immergés dans un bac de taille adapté aux pots de manière à ce que l'eau recouvre de 1 à 2 cm la surface du sol.
(§4) Le stade de traitement est le stade prélevée ou 1 à 2 feuilles développées des adventices. Le traitement est effectué par répartition de la bouillie dans l'eau de submersion en quantité correspondant à une dose d'application de 500 l/ha et contenant la matière active à la concentration requise.
(§5) La bouillie utilisée pour le traitement est une solution ou suspension de la matière active dans un mélange acétone/eau en proportion 50/50, en présence de 0,05 % en poids de Cemulsol NP 10 (agent tensioactif constitué d'alkylphénol polyéthoxylé, notamment de nonylphénol polyéthoxylé) et 0,04 % en poids de tween 20 (agent tensio-actif constitué d'un oléate de dérivé polyoxyéthyléné du sorbitol).
(§6) Dans le cas d'une suspension, celle-ci est obtenue en mélangeant et broyant les ingrédients dans un microniseur de façon à obtenir une grosseur moyenne de particules inférieures à 40 microns.
(§7) Le niveau d'eau de submersion est ensuite maintenu par apport d'eau tout au long de la durée de l'expérimentation soit […]. Les bacs contenant les pots sont placés dans une serre régulée en température à 18°C la nuit et 22°C le jour et en humidité à 70 % d'humidité relative.
(§8) Au bout de 24 jours, on compte le nombre de plantes vivantes dans les pots traités par la bouillie contenant la matière active à tester et le nombre de plantes vivantes dans un pot témoin traité selon les mêmes conditions, mais au moyen d'une bouillie ne contenant pas de matière active. On mesure ainsi un pourcentage (D) des destructions du nombre de pieds dans le pot traité par rapport au nombre de plantes dans les pots non traités (témoin). On mesure, sur les plantes traitées restantes, le pourcentage de réduction de taille (RT) par rapport aux plantes témoin. Le pourcentage du volume foliaire non détruit par le produit est donc donné par la formule: ([100-D] x [100-RT])/(100)= A [formula]
(§9) Cette valeur A est transformée en notation de 0 à 5 selon l'échelle suivante:
(§10) Les résultats obtenus sont présentés dans le tableau suivant pour des doses d'application de 500, 1000 ou 2000 g de matière active par hectare.

The test system of the next data set is ALISMA CANALICULATUM
The description is as above. The settings on record: 2-leaf stage, 24 days.
Description: as §1, §2, §3, §4, §5, §6, §7, §8, §9, §10

Data set [1] concerns Echinochloa crus galli. The data set is described as above. The settings on record: 24 days; for % d'efficacité ECHINOCHLOA CRUS GALLI (1 feuille): 1-leaf stage; for % d'efficacité ECHINOCHLOA CRUS GALLI (prélevée): pre-emergence.
Description: as §1, §2, §3, §4, §5, §6, §7, §8, §9, §10

Data set [2] has as its system ORYSA SATIVA Cv Nihonbare. Description: Exemple D: herbicide application on submerged plants (rice paddy model), transplanted rice. The settings on record: rice transplanted 4 days before treatment, 24 days.
Description: as §1, §2, §3, §4, §5, §6, §7, §8, §9, §10
COMPOSE N°5/RIZ (transplanté 4 jours avant traitement)

The test system of another data set is Avena fatua. Description: Exemple A: herbicide application, pre-emergence. The note with it: dose 4 Kg m.a./ha, notation 0 à 5 after 24 days.
Description: (§11) Exemple A - Application herbicide, en prélevée des espèces végétales
(§12) Dans des pots de 7 x 7 x 8 cm remplis de terre agricole légère, on sème un nombre de graines déterminé en fonction de l'espèce végétale et de la grosseur de la graine.
(§13) Les pots sont traités par pulvérisation de bouillie en quantité correspondant à une dose volumique d'application de 500 l/ha et contenant la matière active à la concentration désirée.
(§14) Le traitement avec la bouillie est donc effectué sur des graines non recouvertes de terre (on utilise le terme de bouillie pour désigner, en général, les compositions diluées à l'eau, telles qu'on les applique sur les végétaux).
(§15) La bouillie utilisée pour le traitement est une solution ou suspension de la matière active dans un mélange acétone/eau en proportions 50/50, en présence de 0,05 % en poids de cemulsol NP 10 (agent tensio-actif) constitué d'alkylphénol polyéthoxylé, notamment de nonylphénol polyéthoxylé) et 0,04 % en poids de tween 20 (agent tensio-actif constitué d'un oléate de dérivé polyoxyéthyléné du sorbitol).
(§16) Dans le cas d'une suspension, celle-ci est obtenue en mélangeant et broyant les ingrédients dans un microniseur de façon à obtenir une grosseur moyenne de particules inférieure à 40 microns.
(§17) Après traitement, on recouvre les graines d'une couche de terre d'environ 3 mm d'épaisseur.
(§18) Les pots sont alors placés dans des bacs destinés à recevoir l'eau d'arrosage, en subirrigation, et maintenus pendant 24 jours à température ambiante sous 70 % d'humidité relative.
(§19) Le relevé est effectué de la façon suivante:
(§20) Au bout de 24 jours, on mesure un pourcentage (D) des destructions du nombre de pieds dans le pot traité par rapport au nombre de plantes dans les pots non traités (témoin). On mesure, sur les plantes traitées restantes, le pourcentage de réduction de taille (RT) par rapport aux plantes témoin.
(§21) Le pourcentage du volume foliaire non détruit par le produit est donc donné par la formule: ([100-D] x [100-RT])/(100)= A [formula]
as §9
(§22) Les résultats obtenus sont présentés après l'exemple B pour des doses d'application de 4000 g/ha à 1000 g/ha.
(§23) Les espèces végétales utilisées dans ces exemples A et B sont: […]

Another data set concerns Digitaria sanguinalis. The experiment in a line: Exemple A: herbicide application, pre-emergence. The settings on record: dose 4 Kg m.a./ha, notation 0 à 5 after 24 days.
Description: as §11, §12, §13, §14, §15, §16, §17, §18, §19, §20, §21, §9, §22, §23

The subject of the next data set is Cyperus esculentus. The experiment in a line: Exemple A: herbicide application, pre-emergence. The note with it: dose 4 Kg m.a./ha, notation 0 à 5 after 24 days.
Description: as §11, §12, §13, §14, §15, §16, §17, §18, §19, §20, §21, §9, §22, §23

For data set [3], the system named is Echinochloa crus galli. The experiment in a line: Exemple A: herbicide application, pre-emergence. The note with it: dose 4 Kg m.a./ha, notation 0 à 5 after 24 days.
Description: as §11, §12, §13, §14, §15, §16, §17, §18, §19, §20, §21, §9, §22, §23

For a further data set, the system named is Alopecurus myosuroïdes. Description: Exemple A: herbicide application, pre-emergence. The settings on record: dose 4 Kg m.a./ha, notation 0 à 5 after 24 days.
Description: as §11, §12, §13, §14, §15, §16, §17, §18, §19, §20, §21, §9, §22, §23

The mark [4] stands for this setting: 500 g de matière active par hectare.
The mark [5] stands for this setting: 1000 g de matière active par hectare.
The mark [6] stands for this setting: 2000 g de matière active par hectare.

Regarding `CCCCOCN(C(=O)CCl)c1c(CC)cccc1CC` [Butachlor, reference compound], the “% d'efficacité CYPERUS SEROTINUS (1 feuille)” value with CYPERUS SEROTINUS (setting [4]) is given as 0 (90 à 100); with CYPERUS SEROTINUS (setting [5]), 1 (70 à 90). In addition, the “% d'efficacité CYPERUS SEROTINUS (prélevée)” value is given as 0 (90 à 100) in the data set on CYPERUS SEROTINUS (setting [4]) and 1 (70 à 90) in the data set with CYPERUS SEROTINUS (setting [5]). Also, the “% d'efficacité ALISMA CANALICULATUM (2 feuilles)” value is 4 (10 à 30) with ALISMA CANALICULATUM (setting [4]) and 5 (0 à 10) in the data set with ALISMA CANALICULATUM (setting [5]). The “% d'efficacité ECHINOCHLOA CRUS GALLI (1 feuille)” value in the data set with Echinochloa crus galli [1] (setting [4]) is given as 1 (70 à 90); in the data set with Echinochloa crus galli [1] (setting [5]), 4 (10 à 30). Besides, the “% d'efficacité ECHINOCHLOA CRUS GALLI (prélevée)” value in the data set on Echinochloa crus galli [1] (setting [4]) and in the data set with Echinochloa crus galli [1] (setting [5]) was 5 (0 à 10) each time. In addition, the “% d'efficacité ORYSA SATIVA Cv Nihonbare” value in data set [2] (setting [4]) and in data set [2] (setting [5]) was 0 (90 à 100) in each case.

As to `C=C(CS(=O)(=O)c1sccc1Cl)c1cccc(F)c1` [compound 5, 1-[(3-chloro 2-thiényl)sulfonyl] 2-(3-fluorophényl) 2-propène], the “% d'efficacité CYPERUS SEROTINUS (1 feuille)” value in the data set with CYPERUS SEROTINUS (setting [4]) is 3 (30 à 50); in the data set with CYPERUS SEROTINUS (setting [5]) it was 4 (10 à 30); in the data set with CYPERUS SEROTINUS (setting [6]), 5 (0 à 10). For the same compound, the results for the “% d'efficacité CYPERUS SEROTINUS (prélevée)” value in the data set with CYPERUS SEROTINUS (setting [4]), in the data set with CYPERUS SEROTINUS (setting [5]) and in the data set on CYPERUS SEROTINUS (setting [6]) were 2 (50 à 70), 5 (0 à 10) and 5 (0 à 10), respectively. In addition, the entries for the “% d'efficacité ALISMA CANALICULATUM (2 feuilles)” value with ALISMA CANALICULATUM (setting [4]), in the data set on ALISMA CANALICULATUM (setting [5]) and in the data set with ALISMA CANALICULATUM (setting [6]) were 3 (30 à 50), 4 (10 à 30) and 4 (10 à 30), respectively. Further, the “% d'efficacité ECHINOCHLOA CRUS GALLI (1 feuille)” value with Echinochloa crus galli [1] (setting [4]), with Echinochloa crus galli [1] (setting [5]) and with Echinochloa crus galli [1] (setting [6]) was 4 (10 à 30) in each case. In addition, the “% d'efficacité ECHINOCHLOA CRUS GALLI (prélevée)” value in the data set with Echinochloa crus galli [1] (setting [4]), with Echinochloa crus galli [1] (setting [5]) and with Echinochloa crus galli [1] (setting [6]) was 5 (0 à 10) each time. For the same compound, the “ACTIVITE HERBICIDE DE PRELEVEE AVE” value in the data set on Avena fatua was 5 (O à 10). In addition, the “ACTIVITE HERBICIDE DE PRELEVEE DIG” value with Digitaria sanguinalis was 5 (O à 10). Moreover, the “ACTIVITE HERBICIDE DE PRELEVEE CYP” value in the data set with Cyperus esculentus is 5 (O à 10). Further, in the data set with Echinochloa crus galli [3], the “ACTIVITE HERBICIDE DE PRELEVEE ECH” value was 5 (O à 10). Besides, the “ACTIVITE HERBICIDE DE PRELEVEE ALO” value with Alopecurus myosuroïdes is recorded as 5 (O à 10). Also, the “% d'efficacité ORYSA SATIVA Cv Nihonbare” value in data set [2] (setting [4]), in data set [2] (setting [5]) and in data set [2] (setting [6]) was 0 (90 à 100) each time.
